IC50 data for 24 compounds are collected here from US20250171462A1 (NICO Therapeutics, Inc., priority 2022, published 2025).

Where two headings read alike, the source gives them in different places. Some results are limits rather than exact numbers.

Usually IC50 stands for the point on the concentration scale where inhibition reaches its midpoint.

This experiment deals with T1, full-length SARM1 (FL-SARM1) (Homo sapiens, UniProt Q6SZW1).
T1 sequence (Q6SZW1 28-724): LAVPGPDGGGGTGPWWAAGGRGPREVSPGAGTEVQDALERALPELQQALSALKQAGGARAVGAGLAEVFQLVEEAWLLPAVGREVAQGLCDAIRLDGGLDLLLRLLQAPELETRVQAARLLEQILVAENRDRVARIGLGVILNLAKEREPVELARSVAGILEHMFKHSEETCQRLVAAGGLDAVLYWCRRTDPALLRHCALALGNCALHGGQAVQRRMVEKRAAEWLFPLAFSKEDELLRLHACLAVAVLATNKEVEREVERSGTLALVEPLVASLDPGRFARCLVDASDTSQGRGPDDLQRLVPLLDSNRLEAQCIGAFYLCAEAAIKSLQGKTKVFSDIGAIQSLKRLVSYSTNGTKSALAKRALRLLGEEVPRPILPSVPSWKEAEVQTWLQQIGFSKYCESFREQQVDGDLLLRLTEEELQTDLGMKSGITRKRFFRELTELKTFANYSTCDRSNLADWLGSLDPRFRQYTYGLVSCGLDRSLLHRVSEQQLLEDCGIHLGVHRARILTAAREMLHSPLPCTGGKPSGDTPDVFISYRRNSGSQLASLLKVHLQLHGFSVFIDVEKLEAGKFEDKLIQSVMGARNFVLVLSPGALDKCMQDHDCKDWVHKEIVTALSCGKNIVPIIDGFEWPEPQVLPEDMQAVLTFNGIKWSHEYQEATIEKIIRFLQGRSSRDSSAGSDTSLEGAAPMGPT
The experiment in a line: FL-SARM1 cellular lysate assay (NAD/NADH-Glo detection of remaining NAD+, NMN-activated).

Setting [1] is: Activity (IC50 class), 11 point curve.
[2] abbreviates: Activity (μM) (IC50), 11 point curve.
Where [3] appears, read: read-out: Activity (IC50 class), 11 point curve.

For the compound `CCO[C@H]1CC2C[C@H](C1)N2C(=O)Nc1ccc(C)c(-c2ccccn2)c1` [Example 79, trans-3-ethoxy-N-(4-methyl-3-(pyridin-2-yl)phenyl)-6-azabicyclo[3.1.1]heptane-6-carboxamide], the IC50 under setting [1] lay within 1 to 10 µM and the IC50 under setting [2] was found to be 2.8 µM.
As to `Cc1ccc(NC(=O)N2[C@@H]3C[C@@H](C)C[C@H]2C3)cc1-c1nccnc1C(F)(F)F` [Example 229, cis-3-methyl-N-[4-methyl-3-[3-(trifluoromethyl)pyrazin-2-yl]phenyl]-6-azabicyclo[3.1.1]heptane-6-carboxamide], the IC50 under setting [2] came out at 0.2 µM and the IC50 under setting [3] was in the range of 0.0001 to 1 µM.
Take `Cc1ccc(NC(=O)N2C3CCCC2C3)cc1-c1ccc(F)cn1` [Example 40, N-(3-(5-fluoropyridin-2-yl)-4-methylphenyl)-6-azabicyclo[3.1.1]heptane-6-carboxamide]: the IC50 is, setting by setting: under setting [2], 0.08 µM; under setting [3], 0.0001 to 1 µM.
Regarding `Cc1ccc(NC(=O)[C@H]2C[C@H]3C[C@H]3N2c2ccncn2)cc1-c1ncc(F)cn1` [Example 265, (1R,3R,5R)-N-[3-(5-fluoropyrimidin-2-yl)-4-methylphenyl]-2-pyrimidin-4-yl-2-azabicyclo[3.1.0]hexane-3-carboxamide], the IC50 runs as follows: under setting [1], 1 to 10 µM; under setting [2], 1.9 µM.
For `Cc1ccc(NC(=O)[C@H]2CC[C@@H](C)N2c2ccc(C#N)cn2)cc1-c1ncc(F)cn1` [Example 285, (2R,5R)-1-(5-cyanopyridin-2-yl)-N-[3-(5-fluoropyrimidin-2-yl)-4-methylphenyl]-5-methylpyrrolidine-2-carboxamide], the IC50 runs as follows: under setting [1], 1 to 10 µM; under setting [2], 2.2 µM.
As to `Cc1ccc(NC(=O)N2C3C[C@@H](C)C[C@H]2C3)cc1-c1nccc(OC(F)F)n1` [Example 233, cis-N-[3-[4-(difluoromethoxy)pyrimidin-2-yl]-4-methylphenyl]-3-methyl-6-azabicyclo[3.1.1]heptane-6-carboxamide], the IC50 reads like this: under setting [2], 0.1 µM; under setting [3], 0.0001 to 1 µM.
Consider `Cc1ccc(NC(=O)N2C3CC2CN(c2ccn(C)n2)C3)cc1-c1ccccn1` [Example 85, 3-(1-methylpyrazol-3-yl)-N-(4-methyl-3-pyridin-2-ylphenyl)-3,6-diazabicyclo[3.1.1]heptane-6-carboxamide], for which the IC50 is more than 10 µM under setting [1] and 23 µM under setting [2].
`Cc1ccc(NC(=O)C2CCC(C)CCN2c2ccccn2)cc1-c1ncccn1` (mixture of isomers) [Example 259, 5-methyl-N-(4-methyl-3-(pyrimidin-2-yl)phenyl)-1-(pyridin-2-yl)azepane-2-carboxamide]: the IC50 is, setting by setting: under setting [1], 1 to 10 µM; under setting [2], 5.8 µM.
With `CNC(=O)CC12CC(C)CC(C1)N2C(=O)Nc1ccc(C)c(-c2ncc(F)cn2)c1` (stereo not drawn) [Example 305, N-(3-(5-fluoropyrimidin-2-yl)-4-methylphenyl)-3-methyl-1-(2-(methylamino)-2-oxoethyl)-6-azabicyclo[3.1.1]heptane-6-carboxamide], the IC50 reads like this: under setting [2], 0.01 µM; under setting [3], 0.0001 to 1 µM.
For `Cc1cc(F)c(NC(=O)N2C3CCCC2C3)cc1-c1ccccn1` [Example 43, N-(2-fluoro-4-methyl-5-(pyridin-2-yl)phenyl)-6-azabicyclo[3.1.1]heptane-6-carboxamide], the IC50 is 0.2 µM under setting [2] and 0.0001 to 1 µM under setting [3].
As to `Cc1c(F)cc(NC(=O)N2C3CCCC2C3)cc1-c1ccccn1` [Example 69, N-(3-fluoro-4-methyl-5-(pyridin-2-yl)phenyl)-6-azabicyclo[3.1.1]heptane-6-carboxamide], the IC50 was 0.08 µM under setting [2] and 0.0001 to 1 µM under setting [3].
For `Cc1ccc(NC(=O)N2[C@@H]3C[C@@H](C)C[C@H]2C3)cc1-c1cc(OC(F)F)cnn1` [Example 235, cis-N-[3-[5-(difluoromethoxy)pyridazin-3-yl]-4-methylphenyl]-3-methyl-6-azabicyclo[3.1.1]heptane-6-carboxamide], the IC50 is, setting by setting: under setting [2], 0.06 µM; under setting [3], 0.0001 to 1 µM.
The compound `Cc1ccc(NC(=O)N2CC3CCC2c2ccccc23)cc1-c1ccccn1` (stereo not drawn) [Example 16, N-(4-methyl-3-(pyridin-2-yl)phenyl)-1,2,3,4-tetrahydro-1,4-(epiminomethano)naphthalene-10-carboxamide] registered an IC50 under setting [1] of 1 to 10 µM and an IC50 under setting [2] of 1.1 µM.
Take `Cc1ccc(NC(=O)C2CC3CC[C@H]2C3)cc1-c1ccccn1` (single isomer, unassigned) [Example 137, trans-N-(4-methyl-3-pyridin-2-ylphenyl)bicyclo[2.2.1]heptane-2-carboxamide]: the IC50 is 0.1 µM under setting [2] and 0.0001 to 1 µM under setting [3].
Turning to `Cc1ccc(NC(=O)OCC2CC2)cc1-c1ncccn1` [Example 328], the IC50 reads like this: under setting [1], more than 10 µM; under setting [2], 31 µM.
Consider `Cc1ccc(NC(=O)N2C3CCC2[C@@H](C)C3)cc1-c1ncc(F)cn1` (single isomer, unassigned) [Example 196, cis-N-(3-(5-fluoropyrimidin-2-yl)-4-methylphenyl)-2-methyl-7-azabicyclo[2.2.1]heptane-7-carboxamide], for which the IC50 is 0.8 µM under setting [2] and 0.0001 to 1 µM under setting [3].
On to `Cc1ccc(NC(=O)C23CC(C(F)(F)F)(C2)C3)cc1-c1ccccn1` [Example 129, N-(4-methyl-3-pyridin-2-ylphenyl)-3-(trifluoromethyl)bicyclo[1.1.1] pentane-1-carboxamide], for which the IC50 reads like this: under setting [1], 1 to 10 µM; under setting [2], 9.1 µM.
In the case of `Cc1ccc(NC(=O)[C@@H]2CC2(F)F)cc1-c1cc(C#N)ccn1` [Example 157, (1S)-N-[3-(4-cyanopyridin-2-yl)-4-methylphenyl]-2,2-difluorocyclopropane-1-carboxamide], the IC50 is more than 10 µM under setting [1] and 38 µM under setting [2].
For the compound `Cc1ccc(NC(=O)N2C3CCCC2C3)cc1-c1cnccn1` [Example 53, N-(4-methyl-3-(pyrazin-2-yl)phenyl)-6-azabicyclo[3.1.1]heptane-6-carboxamide], the IC50 was 0.8 µM under setting [2] and 0.0001 to 1 µM under setting [3].
Turning to `Cc1ccc(NC(=O)N2C3CCCC2C3)cc1-c1nccc(C(F)(F)F)n1` [Example 68, N-(4-methyl-3-(4-(trifluoromethyl)pyrimidin-2-yl)phenyl)-6-azabicyclo[3.1.1]heptane-6-carboxamide], the IC50 is 1 to 10 µM under setting [1] and 4.7 µM under setting [2].
For the compound `Cc1ccc(NC(=O)CC2CCC2)cc1-c1cccnn1` [Example 167, 2-cyclobutyl-N-(4-methyl-3-pyridazin-3-ylphenyl)acetamide], the IC50 was more than 10 µM under setting [1] and 11 µM under setting [2].
Consider `CC(=O)N1[C@H](C)CC[C@@H]1C(=O)Nc1ccc(C)c(-c2ncc(F)cn2)c1` [Example 286, (2R,5R)-1-acetyl-N-[3-(5-fluoropyrimidin-2-yl)-4-methylphenyl]-5-methylpyrrolidine-2-carboxamide], for which the IC50 was 1 to 10 µM under setting [1] and 1.7 µM under setting [2].
For `Cc1ccc(NC(=O)CC2CCC2)cc1-c1cnccn1` [Example 166, 2-cyclobutyl-N-(4-methyl-3-pyrazin-2-ylphenyl)acetamide], in that order: more than 10 µM and 19 µM.
For `Cc1ccc(NC(=O)N2C3CCCC2C3)cc1-c1ncccc1C#N` [Example 33, N-(3-(3-cyanopyridin-2-yl)-4-methylphenyl)-6-azabicyclo[3.1.1]heptane-6-carboxamide], the IC50 by setting is: under setting [1], 1 to 10 µM; under setting [2], 1.2 µM.
